Reference: patent US8455534B2, “Estrogen receptor modulators and uses thereof” (Aragon Pharmaceuticals, Inc., priority 2010, dated 2013)

Tests used:
[1] = target: T1, ER-α (Homo sapiens, UniProt P03372); assay: Breast Cancer Cell ER-α In Cell Western Assay (SP1); assay type: cell-based; details: MCF-7 cells, SP1 antibody, 4 or 24 hr post compound addition; for Emax: MCF7, read-out: ER-α In Cell Western Assay (SP1) Max Response; for DC50: read-out: ER-α In Cell Western Assay (SP1) IC50
T1 sequence (P03372 1-595): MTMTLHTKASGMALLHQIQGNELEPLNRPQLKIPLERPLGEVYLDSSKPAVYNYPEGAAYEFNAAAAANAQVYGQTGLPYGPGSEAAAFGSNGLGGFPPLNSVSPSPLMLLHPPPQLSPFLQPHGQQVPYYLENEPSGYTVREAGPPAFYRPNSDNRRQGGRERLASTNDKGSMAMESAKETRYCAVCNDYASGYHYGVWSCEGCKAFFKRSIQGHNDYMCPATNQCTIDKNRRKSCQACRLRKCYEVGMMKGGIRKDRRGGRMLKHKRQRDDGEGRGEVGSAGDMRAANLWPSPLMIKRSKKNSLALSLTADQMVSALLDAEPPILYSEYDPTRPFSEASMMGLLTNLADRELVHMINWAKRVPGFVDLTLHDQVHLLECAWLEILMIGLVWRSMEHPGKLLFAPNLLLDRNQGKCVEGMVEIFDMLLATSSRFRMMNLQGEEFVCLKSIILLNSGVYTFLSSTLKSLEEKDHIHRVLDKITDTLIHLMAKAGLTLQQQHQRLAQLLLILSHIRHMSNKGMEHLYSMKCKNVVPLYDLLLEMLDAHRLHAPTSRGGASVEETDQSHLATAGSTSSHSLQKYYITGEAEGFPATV
Summary of the method: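 ER-α protein levels measured by in-cell western with SP1 antibody, ratioed to DRAQ5 DNA signal and given as percent of untreated controls. Compounds added at 0.3–0.000003 μM final (eleven semilog points) to adherent MCF-7 cells in stripped serum; exposure 4 or 24 h before fixation.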

[2] = test system: MCF-7 cells; assay: Breast Cancer Cell Viability Assay (MCF-7, CellTiter-Glo); assay type: cell-based; details: 5 days' compound exposure; for IC50: Homo sapiens, MCF7, 120 h
Summary of the method: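 Eleven-point semilog compound series, final 0.3-0.000003 μM, added to overnight-adhered MCF-7 cells (320/well; RPMI, 10% FBS, 20 mM HEPES) for 5 days. Viability read by CellTiter-Glo luminescence, background from medium without cells subtracted, expressed relative to untreated cells.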

Compound | Emax [1] [%] | IC50 [2] [nM] | DC50 [1] [nM] | MCF7 Viability Assay Max Response [2]
CC/C(=C(/c1ccc(/C=C/C(=O)O)c(OC)c1)c1ccc2[nH]ncc2c1)c1ccccc1 [Compound 109, (E)-3-(4-((Z)-1-(1H-Indazol-5-yl)-2-phenylbut-1-en-1-yl)-2-methoxyphenyl)acrylic acid] | ≥ 40 | ≤ 100 |  | ++ (++ = a single % value ≧ 40%)
CCOC(=O)/C=C/c1ccc(/C(=C(/CC)c2ccc(F)cc2Cl)c2ccc3[nH]ncc3c2)cc1.Cl [Compound 110, (E)-Ethyl 3-(4-((E)-2-(2-chloro-4-fluorophenyl)-1-(1H-indazol-5-yl)but-1-en-1-yl)phenyl)acrylate hydrochloride] | ≥ 40 | ≤ 100 | ≤ 100 | + (+ = a single % value < 40%)
CCOC(=O)/C=C/c1ccc(/C(=C(/CC)c2ccc(Cl)cc2Cl)c2ccc3[nH]ncc3c2)cc1 [Compound 112, (E)-Ethyl 3-(4-((E)-2-(2,4-dichlorophenyl)-1-(1H-indazol-5-yl)but-1-en-1-yl)phenyl)acrylate] | ≥ 40 | ≤ 100 | ≤ 100 | + (+ = a single % value < 40%)
CC/C(=C(/c1ccc(/C=C/C(=O)O)cc1)c1ccc2[nH]ncc2c1)c1ccc(Cl)cc1Cl [Compound 113, (E)-3-(4-((E)-2-(2,4-Dichlorophenyl)-1-(1H-indazol-5-yl)but-1-en-1-yl)phenyl)acrylic acid] | ≥ 40 | ≤ 100 | ≤ 100 | ++ (++ = a single % value ≧ 40%)
CC/C(=C(/c1ccc(/C=C/C(=O)O)cc1)c1ccc2[nH]ncc2c1)c1ccc(Cl)cc1C(F)(F)F [Compound 114, (E)-3-(4-((E)-2-(4-Chloro-2-(trifluoromethyl)phenyl)-1-(1H-indazol-5-yl)but-1-en-1-yl)phenyl)acrylic acid] | ≥ 40 | ≤ 100 | ≤ 100 | ++ (++ = a single % value ≧ 40%)
O=C(O)/C=C/c1ccc(/C(=C(\c2ccc(F)cc2Cl)C2CC2)c2ccc3[nH]ncc3c2)cc1 [Compound 115, (E)-3-(4-((E)-2-(2-Chloro-4-fluorophenyl)-2-cyclopropyl-1-(1H-indazol-5-yl)vinyl)phenyl)acrylic acid] | ≥ 40 | ≤ 100 | ≤ 100 | ++ (++ = a single % value ≧ 40%)
CC/C(=C(/c1ccc(/C=C/C(=O)O)cc1)c1ccc2[nH]ncc2c1)c1ccc(F)cc1C(F)(F)F [Compound 116, (E)-3-(4-((E)-2-(4-Fluoro-2-(trifluoromethyl)phenyl)-1-(1H-indazol-5-yl)but-1-en-1-yl)phenyl)acrylic acid] | ≥ 40 | ≤ 100 | ≤ 100 | ++ (++ = a single % value ≧ 40%)
CC/C(=C(/c1ccc(/C=C/C(=O)O)cc1)c1ccc2[nH]ncc2c1F)c1ccc(Cl)cc1Cl [Compound 118, (E)-3-(4-((E)-2-(2,4-Dichlorophenyl)-1-(4-fluoro-1H-indazol-5-yl)but-1-en-1-yl)phenyl)acrylic acid] | ≥ 40 | ≤ 100 | ≤ 100 | ++ (++ = a single % value ≧ 40%)
CC/C(=C(/c1ccc(/C=C/C(=O)O)cc1)c1ccc2[nH]ncc2c1F)c1ccc(Cl)cc1C(F)(F)F [Compound 119, (E)-3-(4-((E)-2-(4-Chloro-2-(trifluoromethyl)phenyl)-1-(4-fluoro-1H-indazol-5-yl)but-1-en-1-yl)phenyl)acrylic acid] | ≥ 40 | ≤ 100 | ≤ 100 | ++ (++ = a single % value ≧ 40%)

Now from value to molecule, other results behind:

Emax [1] [%] | IC50 [2] [nM] | DC50 [1] [nM] | Compound | MCF7 Viability Assay Max Response [2]
≥ 40 | ≤ 100 | ≤ 100 | O=C(O)/C=C/c1ccc(/C(=C(/CCF)c2ccc(F)cc2Cl)c2ccc3[nH]ncc3c2)cc1 [Compound 120, (E)-3-(4-((E)-2-(2-Chloro-4-fluorophenyl)-4-fluoro-1-(1H-indazol-5-yl)but-1-en-1-yl)phenyl)acrylic acid] | ++ (++ = a single % value ≧ 40%)
≥ 40 | ≤ 100 | ≤ 100 | CC/C(=C(/c1ccc(/C=C/C(=O)O)cc1)c1ccc2[nH]ncc2c1)c1ccc(OC)cc1Cl [Compound 121, (E)-3-(4-((E)-2-(2-Chloro-4-methoxyphenyl)-1-(1H-indazol-5-yl)but-1-en-1-yl)phenyl)acrylic acid] | ++ (++ = a single % value ≧ 40%)
≥ 40 | ≤ 100 | ≤ 100 | O=C(O)/C=C/c1ccc(/C(=C(/CCF)c2ccc(Cl)cc2Cl)c2ccc3[nH]ncc3c2F)cc1 [Compound 122, (E)-3-(4-((E)-2-(2,4-Dichlorophenyl)-4-fluoro-1-(4-fluoro-1H-indazol-5-yl)but-1-en-1-yl)phenyl)acrylic acid] | ++ (++ = a single % value ≧ 40%)
≥ 40 | ≤ 100 | ≤ 100 | O=C(O)/C=C/c1ccc(/C(=C(\c2ccc(Cl)cc2Cl)C2CC2)c2ccc3[nH]ncc3c2F)cc1 [Compound 123, (E)-3-(4-((E)-2-Cyclopropyl-2-(2,4-dichlorophenyl)-1-(4-fluoro-1H-indazol-5-yl)vinyl)phenyl)acrylic acid] | ++ (++ = a single % value ≧ 40%)
≥ 40 | ≤ 100 | ≤ 100 | O=C(O)/C=C/c1ccc(/C(=C(\c2ccc(F)cc2Cl)C2CC2)c2ccc3[nH]ncc3c2F)cc1 [Compound 124, (E)-3-(4-((E)-2-(2-Chloro-4-fluorophenyl)-2-cyclopropyl-1-(4-fluoro-1H-indazol-5-yl)vinyl)phenyl)acrylic acid] | ++ (++ = a single % value ≧ 40%)
≥ 40 | ≤ 100 | ≤ 100 | O=C(O)/C=C/c1ccc(/C(=C(\c2ccc(Cl)cc2Cl)C2CC2)c2ccc3[nH]ncc3c2)cc1 [Compound 125, (E)-3-(4-((E)-2-Cyclopropyl-2-(2,4-dichlorophenyl)-1-(1H-indazol-5-yl)vinyl)phenyl)acrylic acid] | ++ (++ = a single % value ≧ 40%)
≥ 40 | ≤ 100 | ≤ 100 | Cc1cc(Cl)ccc1/C(=C(\c1ccc(/C=C/C(=O)O)cc1)c1ccc2[nH]ncc2c1)C1CC1 [Compound 126, (E)-3-(4-((E)-2-(4-Chloro-2-methylphenyl)-2-cyclopropyl-1-(1H-indazol-5-yl)vinyl)phenyl)acrylic acid] | ++ (++ = a single % value ≧ 40%)
< 40 | > 100 | > 100 | CC/C(=C(/c1ccc(/C=C/C(=O)O)cc1)c1ccc2[nH]ncc2c1)c1cc(S(C)(=O)=O)ccc1C [Compound 127, (E)-3-(4-((E)-1-(1H-Indazol-5-yl)-2-(2-methyl-5-(methylsulfonyl)phenyl)but-1-en-1-yl)phenyl)acrylic acid] | + (+ = a single % value < 40%)
≥ 40 | ≤ 100 | ≤ 100 | CC/C(=C(/c1ccc(/C=C/C(=O)O)cc1)c1ccc2[nH]ncc2c1)c1ccc(OC)cc1C [Compound 128, (E)-3-(4-((E)-1-(1H-Indazol-5-yl)-2-(4-methoxy-2-methylphenyl)but-1-en-1-yl)phenyl)acrylic acid] | ++ (++ = a single % value ≧ 40%)
